# Experimental data taken from US8283382B2, “Vitamin K for prevention and treatment of skin rash secondary to anti-EGFR therapy” (Albert Einstein College of Medicine of Yeshiva University, priority 2005, dated 2012).
# Entries after “also recorded” stand apart in the source; their conditions may differ.
# Assays:
# [1] = biological target: T1, EGFR (Homo sapiens, UniProt P00533); assay: Western blot of phosphorylated EGFR in A431 / HN5 cells; type: cell-based; details: for concentration at which activation of EGFR was seen / activation (phosphorylation) of EGFR: 2 hours exposure; for activation (phosphorylation) of EGFR: concentrations up to 1000 μM; for concentration at which activation was seen, converted to mass concentration: K3: EGFR, Akt and Stat-3, K1: EGFR and Akt
# T1 construct: Two human cell lines that overexpress non-mutated EGFR were used; endogenous in cells; host or cells: A431 vulvar carcinoma; HN5 head and neck carcinoma
# Method: FIG. 1A-1C. Effects of Vitamins K1, K2 and K3 (VK1, VK2, VK3) on the phosphorylation of EGFR (A), AKT (B) and Stat-3 (C) in human A431 vulvar carcinoma cells. […] Cells were exposed to the indicated concentrations of VK1, VK2 and VK3 for 2 hours. Following exposure, cells were washed twice with cold phosphate buffered saline (PBS) solution, and lysed with 50 μl of lysis buffer. Equal amounts of lysate (30 μg of protein) were subjected to a 7.5% or a 12% SDS-PAGE. EGFR, phos-EGFR, AKT, phos-AKT, Stat-3, and phos-Stat-3 were detected by immunoblotting analysis using corresponding antibodies.
# FIG. 2. […] After exposure, cells were washed twice with cold PBS solution, and lysed with 50 μl of lysis buffer. Equal amounts of lyaste (30 μg of protein) were subjected to a 7.5% SDS-PAGE. EGFR and phosphorylated EGFR were detected by immunoblotting analysis using corresponding antibodies.
# FIG. 4A-4B. […] Cells were exposed to 0.1 mM VK3 for 1 hour. Following exposure, cells were washed three times with cold medium and then reincubated in VK3-free fresh medium with 10% fetal bovine serum for the indicated times. Cells were harvested and lysed with lysis buffer. Equal amounts of cell lysate were subjected on 7.5% SDS-PAGE (A). The total EGFR and phosphorylated EGFR (p-EGFR) were detected by immunoblot analysis using corresponding antibodies. Control (Con) means cells were not exposed to VK3. The relative p-EGFR was expressed as the intensity of p-EGFR bands in each time points measured by a laser densitometry compared with that in control as one (B).
# (§1) Two human cell lines that overexpress non-mutated EGFR were used: A431 vulvar carcinoma and HN5 head and neck carcinoma. Cells were exposed to different concentrations of different vitamin K analogs in the presence of one of three EGFR inhibitors: the anti-EGFR monoclonal antibody cetuximab (Erbitux®) and the EGFR tyrosine kinase inhibitors (TKIs) erlotinib (Tarceva®) and gefitinib (Iressa®). Cytotoxicity was assessed by cell counting. Cells were lysed and the effects of different vitamin K analogs on activation of EGFR, the kinase Akt, and Signal Transducer and Activator of Transcription-3 (STAT-3) were assessed by western blot analysis using antibodies for the phosphorylated (activated) forms of EGFR, Akt and Stat-3. […] Vitamins K1, K2, and K3 were purchased from Sigma-Aldrich (St Louis, Mo.). Activation of EGFR, Akt and Stat-3 were assessed in the presence and absence of anti-EGFR treatments of the cells. Activation of EGFR by vitamin K analog was also assessed using mouse skin, which was homogenized and lysed after treatment with the vitamin K analog. Phosphatase activity was determined using pNPP (4-nitrophenyl phosphate disodium) as a substrate.
# [2] = system: Akt; assay: Western blot of phosphorylated Akt in A431 / HN5 cells; type: cell-based, human; details: for concentration at which activation of Akt was seen / activation (phosphorylation) of Akt: A431 cells, 2 hours exposure; for activation (phosphorylation) of Akt: concentrations up to 1000 μM
# Method: (§2) FIG. 1A-1C. Effects of Vitamins K1, K2 and K3 (VK1, VK2, VK3) on the phosphorylation of EGFR (A), AKT (B) and Stat-3 (C) in human A431 vulvar carcinoma cells. A431 cells (1×10^6 cells/well) were plated in a 6-well plate, and incubated in RPMI-1640 medium with 10% serum overnight. Cells were exposed to the indicated concentrations of VK1, VK2 and VK3 for 2 hours. Following exposure, cells were washed twice with cold phosphate buffered saline (PBS) solution, and lysed with 50 μl of lysis buffer. Equal amounts of lysate (30 μg of protein) were subjected to a 7.5% or a 12% SDS-PAGE. EGFR, phos-EGFR, AKT, phos-AKT, Stat-3, and phos-Stat-3 were detected by immunoblotting analysis using corresponding antibodies. Vitamin K3 stimulated EGFR, Akt and Stat-3.
# (§3) Two human cell lines that overexpress non-mutated EGFR were used: A431 vulvar carcinoma and HN5 head and neck carcinoma. Cells were exposed to different concentrations of different vitamin K analogs in the presence of one of three EGFR inhibitors: the anti-EGFR monoclonal antibody cetuximab (Erbitux®) and the EGFR tyrosine kinase inhibitors (TKIs) erlotinib (Tarceva®) and gefitinib (Iressa®). Cytotoxicity was assessed by cell counting. Cells were lysed and the effects of different vitamin K analogs on activation of EGFR, the kinase Akt, and Signal Transducer and Activator of Transcription-3 (STAT-3) were assessed by western blot analysis using antibodies for the phosphorylated (activated) forms of EGFR, Akt and Stat-3. Polyclonal antibodies of anti-EGFR, anti-phos-EGFR (Tyr1068), anti-AKT, anti-phos-AKT (Ser473), anti-Stat-3, and anti-phos-Stat-3 (Tyr-705) were purchased from Cell Signaling (Beverly, Mass.). Vitamins K1, K2, and K3 were purchased from Sigma-Aldrich (St Louis, Mo.). Activation of EGFR, Akt and Stat-3 were assessed in the presence and absence of anti-EGFR treatments of the cells. Activation of EGFR by vitamin K analog was also assessed using mouse skin, which was homogenized and lysed after treatment with the vitamin K analog. Phosphatase activity was determined using pNPP (4-nitrophenyl phosphate disodium) as a substrate.
# [3] = biological target: EGFR (Mus musculus, UniProt Q01279); assay: EGFR phosphorylation in mouse skin tissue (immunoblot)
# Method: Effect of Vitamin K3 (menadione) on erlotinib-induced inhibition of EGFR phosphorylation in mouse skin. […] Mice were administrated P.O. daily 50 mg/kg of erlotinib; mouse skin was smeared with VK3 15 mM ethanol solution. After treatment, the mice were sacrificed and skin tissue was taken. 100 mg skin tissue was used for the preparation of tissue extracts. Equal amounts of skin tissue extracts (80 μg of protein) were subjected on a 7.5% SDS-PAGE. Total EGFR and p-EGFR were detected by immunoblot analysis.
# Effect of VK3, Cream B and Cream VK on EGFR phosphorylation in mouse skin tissue. The mice were smeared with 30 mM or 100 mM VK3 (in ethanol), or with the same doses of Cream B or Cream VK. Following treatment, mice were sacrificed and skin tissues were taken for the preparation of tissue extracts. Equal amounts of tissue extracts (80 μg of protein) were subjected on a 7.5% of SDS-PAGE. Total EGFR and p-EGFR were detected by immunoblot analysis using polyclonal anti-EGFR and p-EGFR antibodies. Cream B is an over the counter product (Baby Cakes) containing Vitamin K3 according to its label; the concentration is not specified. Cream VK is a 5% Vitamin K cream available over the counter.
# The effect of Vitamin K3 was examined in the skin of animals receiving the EGFR TK inhibitor erlotinib 100 mg/kg×10 days (days 1-10). […] The skin of mice was smeared with Vitamin K3 in ethanol (15 mM BID×5 days on days 5 to 10). The effect of Vitamin K3 was compared to that of two over-the-counter skin creams. Cream B (Baby Cakes) is an over-the-counter product containing Vitamin K3 according to its label; the concentration is not specified. Cream VK is a 5% Vitamin K cream available over-the-counter.
# [4] = cited from earlier work
# [5] = system: A431 vulvar carcinoma cells; assay: Erlotinib-induced cell growth inhibition / cytotoxicity by cell counting; type: cell-based, human
# Method: as §1
# [6] = system: phosphatase activity; assay: Phosphatase activity in A431 cell extracts with pNPP substrate; type: cell-based, human
# Method: FIG. 5. […] A431 cells were exposed to 0.1 mM VK3 for 1 hour. After exposure, cells were washed three times with cold medium and then reincubated in VK3-free medium with 10% fetal bovine serum for the indicated time. Cells were harvested and cell extracts were prepared for the assay of phosphatase activity using pNPP (4-nitrophenyl phosphate disodium) as a substrate. Control (Con) means the phosphatase activity in cells without exposure to VK3. The relative phosphatase activity was expressed as compared with that in control as one. VK3-induced phosphatase inhibition is reversible following removal of VK3.
# as §1
# [7] = system: Stat-3; assay: Western blot of phosphorylated Stat-3 in A431 / HN5 cells; type: cell-based, human; details: for activation (phosphorylation) of Stat-3: concentrations up to 1000 μM
# Method: as §2, §3
# [8] = Matschiner et al., 1972; cited from earlier work
# Chain of EGFR (Mus musculus, UniProt Q01279) (Q01279 25-1210): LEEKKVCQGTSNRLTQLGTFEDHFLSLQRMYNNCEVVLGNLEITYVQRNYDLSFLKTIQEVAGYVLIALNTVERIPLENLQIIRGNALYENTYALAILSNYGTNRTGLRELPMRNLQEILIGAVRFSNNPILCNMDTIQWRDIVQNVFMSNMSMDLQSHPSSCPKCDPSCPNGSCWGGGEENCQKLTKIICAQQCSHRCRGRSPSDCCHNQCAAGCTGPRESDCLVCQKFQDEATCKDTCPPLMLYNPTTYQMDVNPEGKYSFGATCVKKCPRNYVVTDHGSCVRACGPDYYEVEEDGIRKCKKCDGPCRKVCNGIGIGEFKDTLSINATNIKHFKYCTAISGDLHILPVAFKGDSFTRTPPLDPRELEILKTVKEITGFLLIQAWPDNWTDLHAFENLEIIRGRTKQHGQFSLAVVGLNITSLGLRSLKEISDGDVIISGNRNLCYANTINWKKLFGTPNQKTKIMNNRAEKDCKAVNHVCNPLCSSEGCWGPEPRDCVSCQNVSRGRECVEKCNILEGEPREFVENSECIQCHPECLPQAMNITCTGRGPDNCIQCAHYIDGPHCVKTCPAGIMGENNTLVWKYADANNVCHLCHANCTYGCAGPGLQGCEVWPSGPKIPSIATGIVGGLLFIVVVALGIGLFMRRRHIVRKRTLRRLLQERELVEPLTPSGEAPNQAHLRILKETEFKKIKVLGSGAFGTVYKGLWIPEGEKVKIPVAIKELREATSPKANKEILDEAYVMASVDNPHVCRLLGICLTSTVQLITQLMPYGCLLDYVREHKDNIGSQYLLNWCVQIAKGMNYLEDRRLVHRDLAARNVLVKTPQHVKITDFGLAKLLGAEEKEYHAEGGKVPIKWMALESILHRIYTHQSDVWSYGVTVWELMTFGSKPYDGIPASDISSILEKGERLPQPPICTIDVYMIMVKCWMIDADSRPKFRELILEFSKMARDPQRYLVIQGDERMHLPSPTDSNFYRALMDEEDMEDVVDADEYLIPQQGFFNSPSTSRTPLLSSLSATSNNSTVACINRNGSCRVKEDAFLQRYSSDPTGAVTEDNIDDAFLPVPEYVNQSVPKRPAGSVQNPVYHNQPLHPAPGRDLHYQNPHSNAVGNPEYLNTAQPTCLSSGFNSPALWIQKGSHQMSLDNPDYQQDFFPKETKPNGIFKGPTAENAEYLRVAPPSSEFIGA
# T1 sequence (P00533 25-1210): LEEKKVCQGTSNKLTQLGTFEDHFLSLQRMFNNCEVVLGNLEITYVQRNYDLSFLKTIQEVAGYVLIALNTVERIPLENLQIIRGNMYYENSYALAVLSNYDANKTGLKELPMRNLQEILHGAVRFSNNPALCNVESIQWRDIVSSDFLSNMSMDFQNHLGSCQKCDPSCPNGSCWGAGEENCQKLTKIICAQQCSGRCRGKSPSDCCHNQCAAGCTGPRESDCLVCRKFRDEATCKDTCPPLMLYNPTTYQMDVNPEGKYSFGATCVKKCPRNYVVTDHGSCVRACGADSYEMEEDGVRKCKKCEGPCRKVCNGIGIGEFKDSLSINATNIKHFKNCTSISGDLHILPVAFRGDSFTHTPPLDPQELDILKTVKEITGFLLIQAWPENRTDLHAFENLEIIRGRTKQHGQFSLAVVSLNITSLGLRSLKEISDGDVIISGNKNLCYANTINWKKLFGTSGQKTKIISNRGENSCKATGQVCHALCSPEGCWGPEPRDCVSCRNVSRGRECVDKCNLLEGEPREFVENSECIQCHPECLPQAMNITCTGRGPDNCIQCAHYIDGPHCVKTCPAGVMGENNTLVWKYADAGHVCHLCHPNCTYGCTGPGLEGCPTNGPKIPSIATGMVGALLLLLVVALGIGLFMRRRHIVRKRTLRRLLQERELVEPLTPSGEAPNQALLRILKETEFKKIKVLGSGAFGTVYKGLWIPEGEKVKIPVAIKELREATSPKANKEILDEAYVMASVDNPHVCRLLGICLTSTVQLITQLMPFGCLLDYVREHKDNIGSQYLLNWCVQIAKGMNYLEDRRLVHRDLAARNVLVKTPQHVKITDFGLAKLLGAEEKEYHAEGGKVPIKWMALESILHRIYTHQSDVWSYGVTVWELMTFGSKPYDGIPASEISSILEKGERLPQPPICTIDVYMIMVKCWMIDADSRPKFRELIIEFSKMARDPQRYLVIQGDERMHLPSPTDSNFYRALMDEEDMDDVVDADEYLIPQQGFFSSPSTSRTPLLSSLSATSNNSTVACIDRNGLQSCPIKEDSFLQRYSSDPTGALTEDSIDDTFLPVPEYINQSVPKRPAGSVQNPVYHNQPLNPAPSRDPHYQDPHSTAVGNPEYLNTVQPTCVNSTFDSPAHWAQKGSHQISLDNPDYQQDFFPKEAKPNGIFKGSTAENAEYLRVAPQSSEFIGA
structure (smiles),measurement,setting,value
"CC1=C(C/C=C(\C)CCC[C@H](C)CCC[C@H](C)CCCC(C)C)C(=O)c2ccccc2C1=O [Vitamin K1, 2-methyl-3-phytyl-1,4-naphthoquinone]",concentration at which activation of EGFR was seen,[1]; A431 cells,1000 µM
same,activation (phosphorylation) of EGFR,[1]; A431 cells,activated
same,"concentration at which activation was seen, converted to mass concentration",[1]; A431 cells,about 450 μg/ml
same,concentration at which activation of Akt was seen,[2],1000 µM
"CC1=CC(=O)c2ccccc2C1=O [Vitamin K3, 2-methyl-1,4-naphthoquinone]",p-EGFR in skin of mice receiving erlotinib,"[3]; erlotinib P.O. daily, skin smeared with Vitamin K3 15 mM in ethanol BID x 5 days (days 5 to 10)",rescues; also recorded: significant p-EGFR expression
same,EGFR phosphorylation in mouse skin tissue,"[3]; skin smeared with 30 mM or 100 mM (VK3 in ethanol) x 3 doses every 12 hours, same doses of creams",activates EGFR
same,activation of EGFR in normal mouse skin,[3]; topical application,activated
same,dermatitis on topical administration,"[4]; Page et al., 1942",can cause dermatitis
same,vesiculation of the skin on topical administration,"[4]; Ulbrich, 1961",vesiculation of the skin
same,reversibility of induced EGFR phosphorylation,"[1]; A431 cells, 0.1 mM VK3 1 hour, then VK3-free medium",reversible
same,concentration at which activation of EGFR was seen,[1]; A431 cells,100 µM
same,activation (phosphorylation) of EGFR,[1]; A431 cells,stimulated; also recorded: activated
same,"concentration at which activation was seen, converted to mass concentration",[1]; A431 cells,about 17 μg/ml
same,activation of EGFR in the presence of erlotinib,"[1]; A431 or HN5 cells, serum free medium, erlotinib 2 μM, Vitamin K3 0.01-0.5 mM, 2 hours",prevents the inhibition of EGFR phosphorylation; also recorded: activated
same,activation of EGFR in the presence of cetuximab,[1]; Vitamin K3 0.1 and 0.5 mM,activated
same,concentration at which activation of Akt was seen,[2],100 µM
same,activation (phosphorylation) of Akt,[2],stimulated; also recorded: activated
same,activation of Akt in the presence of erlotinib,"[2]; A431 or HN5 cells, erlotinib 2 μM, at 0.5 mM vitamin K3",activated
same,activation of Akt in the presence of cetuximab,[2]; Vitamin K3 0.1 and 0.5 mM,activated
same,decrease of cytotoxicity of the EGFR inhibitor (erlotinib),"[5]; co-incubation with Vitamin K3 50-100 μM, 72 hours, cell counting",4-6 fold
same,effect on phosphatase activity,"[6]; A431 cells, 0.1 mM VK3 for 1 hour, pNPP substrate",inhibits phosphatase activity; also recorded: inhibiting phosphatase activity
same,time after removal at which phosphatase inhibition is reversed,"[6]; A431 cells, reincubation in VK3-free medium",2 to 3 h
same,reversibility of phosphatase inhibition,[6]; following removal of VK3,reversible
same,concentration at which activation of Stat-3 was seen,"[7]; A431 cells, 2 hours exposure",100 µM
same,activation (phosphorylation) of Stat-3,"[7]; A431 cells, 2 hours exposure",stimulated; also recorded: activated
same,activation of Stat-3 in the presence of erlotinib,"[7]; A431 or HN5 cells, erlotinib 2 μM, at 0.1 and 0.5 mM vitamin K3",activated
same,activation of Stat-3 in the presence of cetuximab,[7]; Vitamin K3 0.1 and 0.5 mM,activated
"CC1=C(C/C=C(/C)CCC[C@H](C)CCC[C@H](C)CCCC(C)C)C(=O)c2ccccc2C1=O (single isomer, unassigned) [cis isomer]",biological activity,[8],little or no biological activity
"CC(C)=CCC/C(C)=C/CC/C(C)=C/CC/C(C)=C/CC/C(C)=C/CC/C(C)=C/CC1=C(C)C(=O)c2ccccc2C1=O [Vitamin K2, 2-methyl-3-hexaprenyl-1,4-naphthoquinone]",activation (phosphorylation) of EGFR,[1]; A431 cells,little or no effect
same,activation (phosphorylation) of Akt,[2],little or no effect
same,activation (phosphorylation) of Stat-3,"[7]; A431 cells, 2 hours exposure",little or no effect
C#Cc1cccc(Nc2ncnc3cc(OCCOC)c(OCCOC)cc23)c1 [erlotinib],effect of exposure on cells,"[5]; A431 cells, erlotinib alone",cell death
